From patent US12629406B2, “Alterations in endothelin receptors following hemorrhage and resuscitation by centhaquin” (MIDWESTERN UNIVERSITY, priority 2018, dated 2026)
Where “and” joins values, the source holds several entries; their conditions need not be identical. Identical values can stand only once.

Legend:
[1] = Rat hemorrhagic shock, hypertonic saline resuscitation: hematocrit, arterial blood gases, lactate, base deficit; type: in vivo
Protocol: Animals. Male Sprague-Dawley rats (340 to 380 g) (Envigo, Indianapolis, IN) were housed for at least 4 days in a room with controlled temperature (23±1° C.), humidity (50±10%) and light (6:00 A.M. to 6:00 P.M.) before being used. Food and water were made available continuously. Animal care and use for experimental procedures were approved by the Institutional Animal Care and Use Committee of the Midwestern University. All anesthetic and surgical procedures were in compliance with the guidelines established by the Animal Care Committee.
Determination of arterial blood gases and base deficit. Baseline arterial blood pH, Po2, Pco2, Na^+, K^+ and lactate were monitored prior to induction of shock, 30 minutes after induction of shock, and 30 and 60 minutes following vehicle or centhaquin resuscitation. Blood samples (0.15 ml) were drawn from the arterial cannula using blood gas sampling syringes (Innovative Medical Technologies, Inc. Leawood, K S) and analyzed using a pHOx Ultra analyzer (Nova Biomedical Corporation, Waltham, MA). The base deficit was calculated using the formula (Davis et al. 1998; Paladino et al. 2008): SBD=0.9287×[HCO3^−−24.4+14.83×(pH-7.4)]
(§1) Induction of Hemorrhagic Shock. Hemorrhage was induced by withdrawing blood from the femoral artery at a rate of approximately 0.5 to 1 mL/min until a MAP of 35 mmHg was reached. This MAP was maintained for 30 min by further withdrawal of blood, if necessary. The hemorrhagic shock model used in the present study is a well-established rodent model of manageable pressure hemorrhage (Buehler et al. 2000; Gulati et al. 1997a; Gulati and Sen 1998). The volume of blood loss was about approximately 8.0 ml in each rat and was similar in various groups, amounting to approximately 40% of the total blood. Measured hematocrit levels were similar in various groups. The duration of blood withdrawal was approximately 15 minutes.
Experimental design. To determine the resuscitative effect of centhaquin on cardiovascular system and plasma cytokines in hemorrhagic shock, rats were randomly divided into five groups, Group 1: Sham control (Non-hemorrhaged) (n=5), Group 2: Hemorrhage with no resuscitation (n=5); Group 3: Hemorrhage followed by resuscitation with 3% hypertonic saline (vehicle) (n=5); Group 4: Hemorrhage followed by resuscitation with vehicle plus centhaquin (0.017 mg/kg) (n=5); and Group 5: Hemorrhage followed by resuscitation with vehicle plus centhaquin (0.05 mg/kg) (n=5). Resuscitation was started 30 min after induction of hemorrhagic shock as an intravenous infusion (1 mL/min) through femoral vein using an infusion pump (Harvard Apparatus Infusion/Withdrawal Pump, Millis, MA). The blood samples, for biochemical estimations, were collected at 30 minutes of resuscitation and cardiovascular parameters were monitored till 60 minutes after which the animal was sacrificed. The volume of resuscitative solution was kept equal to the volume of blood loss.

[2] = 24 human subjects; cited from earlier work
[3] = cited from earlier work
[4] = tested on: IL-6; assay: Plasma IL-6 in hemorrhaged rats (ELISA); type: in vivo, rat; settings: p<0.01
Protocol: as §1
Experimental design. […] The blood samples, for biochemical estimations, were collected at 30 minutes of resuscitation and cardiovascular parameters were monitored till 60 minutes after which the animal was sacrificed. […]

[5] = in vivo; cited from earlier work
[6] = 60 min after resuscitation, centhaquin 0.017 mg/kg in 3% saline
[7] = 60 min after resuscitation, centhaquin 0.05 mg/kg in 3% saline
[8] = Baseline, before hemorrhage, centhaquin 0.017 mg/kg group
[9] = Baseline, before hemorrhage, centhaquin 0.05 mg/kg group
[10] = H. Shock, before resuscitation, centhaquin 0.017 mg/kg group
[11] = H. Shock, before resuscitation, centhaquin 0.05 mg/kg group
[12] = centhaquin 0.017 and 0.05 mg/kg

With `Cc1cccc(N2CCN(CCc3ccc4ccccc4n3)CC2)c1` [centhaquin, 2-[2-(4-(3-methyphenyl)-1-piperazinyl)]ethyl-quinoline] the Base-deficit [1, 6] was −12.0±0.2 mEq/L and −12.0 ± 0.2^#Δ mEq/L, the Hematocrit [1, 6] was 21.5 ± 1.8% and the Lactate [1, 6] was 1.9 ± 0.1^#Δ mmol/L. The PCO2 [1, 6] was 26.0 ± 1.6 mmHg, the “arterial blood pH” value [1, 6] was 7.24 ± 0.02^Δ and the pO2 [1, 6] was 131.3 ± 5.4 mmHg. For the same molecule, the Base-deficit [1, 7] was −11.6±0.5 mEq/L and −11.6 ± 0.5^#Δ mEq/L, the Hematocrit [1, 7] was 21.3 ± 1.3% and the Lactate [1, 7] was 1.7 ± 0.2^#Δ mmol/L. For the same molecule, the PCO2 [1, 7] was 27.3 ± 1.9 mmHg, the “arterial blood pH” value [1, 7] was 7.28 ± 0.01^Δ and the pO2 [1, 7] was 121.3 ± 4.6 mmHg. For the same molecule, the Base-deficit [1, 8] was −2.9 ± 0.3 mEq/L, the Hematocrit [1, 8] was 36.8 ± 1.3% and the Lactate [1, 8] was 1.5 ± 0.2 mmol/L. The PCO2 [1, 8] was 33.8 ± 1.2 mmHg, the “arterial blood pH” value [1, 8] was 7.38 ± 0.01 and the pO2 [1, 8] was 125.5 ± 1.9 mmHg. It also gave a Base-deficit [1, 9] of −2.8 ± 0.3 mEq/L, a Hematocrit [1, 9] of 39.3 ± 1.6% and a Lactate [1, 9] of 1.8 ± 0.1 mmol/L. The PCO2 [1, 9] was 34.5 ± 2.1 mmHg, the “arterial blood pH” value [1, 9] was 7.38 ± 0.01 and the pO2 [1, 9] was 120.2 ± 1.2 mmHg. For the same molecule, the Base-deficit [1, 10] was −15.3 ± 0.4 mEq/L, the Hematocrit [1, 10] was 24.8 ± 1.5 % and the Lactate [1, 10] was 7.6 ± 0.3 mmol/L. The PCO2 [1, 10] was 15.9 ± 0.9 mmHg, the “arterial blood pH” value [1, 10] was 7.23 ± 0.02 and the pO2 [1, 10] was 145.6 ± 1.9 mmHg. For the same molecule, the Base-deficit [1, 11] was −15.4 ± 0.9 mEq/L, the Hematocrit [1, 11] was 22.2 ± 0.7 % and the Lactate [1, 11] was 7.4 ± 0.4 mmol/L. The PCO2 [1, 11] was 16.3 ± 1.5 mmHg, the “arterial blood pH” value [1, 11] was 7.25 ± 0.03 and the pO2 [1, 11] was 142.8 ± 1.8 mmHg. For the same molecule, the “change in hematocrit after treatment” value [1, 12] was “no change”, the “effect on blood pH of hemorrhaged rats” value [1, 12] was “significantly prevented the reduction of pH” and the “blood lactate levels compared to the hypertonic saline group” value ([1]; centhaquin 0.017 and 0.05 mg/kg, p<0.001) was “significant decrease”. For the same molecule, the “effect on hemorrhage-induced decrease in pCO2 and increase in pO2” value ([1]; resuscitation with centhaquin) was “not affected”, the safety and tolerability [2] was “safe and was well tolerated” and the “survival compared to Lactated Ringer's” value ([3]; 0.015 mg/kg in the fluid resuscitation phase) was “significantly better survival”. For the same molecule, the “cardiac output (CO)” value ([3]; 0.015 mg/kg) was “augments CO”, the “systemic vascular resistance (SVR)” value ([3]; 0.015 mg/kg) was “reduces systemic vascular resistance” and the “volume of fluids for resuscitation” value ([3]; 0.015 mg/kg) was “requires smaller volume of fluids”. For the same molecule, the “plasma IL-6 level compared to hypertonic saline alone” value [4] was “further increased”, the half-life [5] was “about one” and the volume of distribution [5] was “high”.
